Literature values, collected in US11980686B1, “Agomelatine oral transmucosal film” (Xiamen LP Pharmaceutical Co., Ltd., priority 2023, dated 2024).

Details: oral tablet

Inter-individual variation (AUC): 104% | Intra-subject variation (AUC): 157%
Structure (SMILES): COc1ccc2cccc(CCNC(C)=O)c2c1 [agomelatine, Agomelatine]
